The source of these data is patent US20240415819A1, “MACROCYCLIC COMPOUNDS AS PROTEASOME SUBUNIT BETA TYPE-5 INHIBITORS” (Lead Discovery Center GmbH, priority 2021, published 2024).

For one test, the system named is hPMBC. Nature of the test: Chymotrypsin-like ProteasomeGlo assay in hPBMC. In kind it is cell-based. The conditions noted are these: Homo sapiens; read-out: Pglo hPBMC. In short, it runs like this:
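B cells isolated from human PBMC (buffy coats, density gradient, magnetic isolation). Cells treated with compound for 105 min at 37 °C, with staurosporine and DMSO included. Chymotrypsin-like proteasome activity read by luminescence with Suc-LLVY-Glo substrate to derive IC50.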

Test [1] concerns the target T1, β5 subunit of the human constitutive proteasome (CPS) (Homo sapiens, UniProt P28074).
T1 construct: purchased Boston Biochem E-360
Briefly: β5 inhibition assay, human constitutive proteasome (Suc-LLVY-AMC). It is filed as biochemical. The following applies: IC50 class, Suc-LLVY-AMC substrate. As for the experimental part:
The enzymatic activity of the β5 subunit of the human constitutive proteasome (CPS) is analyzed. In another assay, which differs from the assay of the human constitutive proteasome only in using the human immunoproteasome (IPS) the enzymatic activity of the β5 subunit of the human immunoproteasome (IPS) is analyzed. […] Inhibition is indicated as IC50 [nM] (“-”=not measured).

For test [2], the system named is A549 (human lung carcinoma cell line). Nature of the test: Glo assay of A549 cells (Table 3; ProteasomeGlo plating scheme). It is filed as cell-based. The following applies: Homo sapiens; A549 cells; read-out: PGLo A549. A digest of the protocol:
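Luminescent read-out of cellular chymotrypsin-like proteasome activity: cells exposed to compound 105 min at 37° C., 5% CO2, then given Suc-LLVY-Glo reagent, shaken 2-5 min and kept dark 10-15 min before reading. Values are IC50 [nM].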

The structures appear in SMILES notation. Some results are limits rather than exact numbers.

For the compound `Cc1ccc2cc1CNC(=O)C(CCc1ccncc1)NC(=O)[C@@H](NC(=O)Cc1nnc(N)s1)CC(=O)N1CCCC(CCO2)C1` (stereo partly drawn) [Compound 342, 2-(5-amino-1,3,4-thiadiazol-2-yl)-N-((12S)-5^4-methyl-8,11,14-trioxo-9-(2-(pyridin-4-yl)ethyl)-4-oxa-7,10-diaza-1(3,1)-piperidina-5(1,3)-benzenacyclotetradecaphane-12-yl)acetamide], the IC50 (with hPMBC; in test [1]; in test [2]) was below 0.1 µM throughout.
Take `CC(=O)N[C@H]1CCCC(=O)N(C)CCCCOc2ccc(C)c(c2)CNC(=O)[C@H](CCc2ccccc2)NC1=O` [Compound 295, N-(1^4,7-dimethyl-8,13,16-trioxo-15-phenethyl-2-oxa-7,14,17-triaza-1(1,3)-benzenacyclooctadecaphane-12-yl)acetamide]: the IC50 is 0.1 to 0.5 µM in the test with hPMBC, below 0.1 µM in test [1] and 0.1 to 0.5 µM in test [2].
As to `COC(C(=O)N[C@H]1CC(=O)N2CCCC(CCOc3ccc(C)c(c3)CNC(=O)[C@H](CCc3ccccc3)NC1=O)C2)c1ccc(N)cc1` (stereo partly drawn) [Compound 326, 2-(4-aminophenyl)-2-methoxy-N-((9S,12S)-5^4-methyl-8,11,14-trioxo-9-phenethyl-4-oxa-7,10-diaza-1(3,1)-piperidina-5(1,3)-benzenacyclotetradecaphane-12-yl)acetamide], the IC50 (with hPMBC; in test [1]; in test [2]) was below 0.1 µM each time.
On to `Cc1ccc2cc1CNC(=O)C(c1cnn(C)c1)NC(=O)[C@@H](NC(=O)CN1CCCC1)CC(=O)N1CCCC(CCO2)C1` (stereo partly drawn) [Compound 358, N-((12S)-5^4-methyl-9-(1-methyl-1H-pyrazol-4-yl)-8,11,14-trioxo-4-oxa-7,10-diaza-1(3,1)-piperidina-5(1,3)-benzenacyclotetradecaphane-12-yl)-2-(pyrrolidin-1-yl)acetamide], for which the values for the IC50 (in the test with hPMBC; in test [1]; in test [2]) were below 0.1 µM, 0.1 to 0.5 µM and below 0.1 µM, respectively.
Regarding `Cc1ccc2cc1CNC(=O)[C@H](CCc1ccccc1)NC(=O)[C@@H](NC(=O)OCc1ccccc1)CCC(=O)N1CCC(CCO2)C1` (stereo partly drawn) [Compound 350, benzyl ((9S,12S)-5^4-methyl-8,11,15-trioxo-9-phenethyl-4-oxa-7,10-diaza-1(3,1)-pyrrolidina-5(1,3)-benzenacyclopentadecaphane-12-yl)carbamate], the IC50 (in the test with hPMBC; in test [1]; in test [2]) was below 0.1 µM each time.
With `Cc1ccc2cc1CNC(=O)[C@H](CCc1ccccc1)NC(=O)[C@@H](NC(=O)c1ccc3cc(N)ccc3c1)CC(=O)N1CCCC(CCO2)C1` (stereo partly drawn) [Compound 339, 6-amino-N-((9S,12S)-5^4-methyl-8,11,14-trioxo-9-phenethyl-4-oxa-7,10-diaza-1(3,1)-piperidina-5(1,3)-benzenacyclotetradecaphane-12-yl)-2-naphthamide], the figures for the IC50 (in the test on hPMBC; in test [1]; in test [2]) were 0.1 to 0.5 µM, below 0.1 µM and 0.1 to 0.5 µM, respectively.
For the compound `CC(=O)N[C@H]1CC(=O)N(C)CCCCOc2ccc(C)c(c2)CNC(=O)[C@H](CCc2ccccc2)NC1=O` [Compound 296, N-(1^4,7-dimethyl-8,11,14-trioxo-13-phenethyl-2-oxa-7,12,15-triaza-1(1,3)-benzenacyclohexadecaphane-10-yl)acetamide], the IC50 lay within 0.1 to 0.5 µM with hPMBC, 0.5 to 1 µM in test [1] and 0.5 to 1 µM in test [2].
Regarding `Cc1ccc2cc1CNC(=O)[C@H](CCc1ccccc1)NC(=O)[C@@H](NC(=O)OCc1ccccc1)CC(=O)N1CCCC(CCO2)C1` (stereo partly drawn) [Compound 7, benzyl ((9S,12S)-5^4-methyl-8,11,14-trioxo-9-phenethyl-4-oxa-7,10-diaza-1(3,1)-piperidina-5(1,3)-benzenacyclotetradecaphane-12-yl)carbamate], the IC50 (in the test on hPMBC; in test [1]; in test [2]) was below 0.1 µM throughout.
Regarding `Cc1ccc2cc1CNC(=O)C(CCc1cnccn1)NC(=O)[C@@H](NC(=O)Cc1ccc(N)cc1F)CC(=O)N1CCCC(CCO2)C1` (stereo partly drawn) [Compound 372, 2-(4-amino-2-fluorophenyl)-N-((9S,12S)-5^4-methyl-8,11,14-trioxo-9-(2-(pyrazin-2-yl)ethyl)-4-oxa-7,10-diaza-1(3,1)-piperidina-5(1,3)-benzenacyclotetradecaphane-12-yl) acetamide], the IC50 (with hPMBC; in test [1]; in test [2]) was below 0.1 µM each time.
Consider `Cc1ccc2cc1CNC(=O)C(CCc1cnc3cccnc3c1)NC(=O)[C@@H](NC(=O)OCc1ccccc1)CC(=O)N1CCCC(CCO2)C1` (stereo partly drawn) [Compound 511, benzyl ((12S)-9-(2-(1,5-naphthyridin-3-yl)ethyl)-5^4-methyl-8,11,14-trioxo-4-oxa-7,10-diaza-1(3,1)-piperidina-5(1,3)-benzenacyclotetradecaphane-12-yl)carbamate], for which the IC50 (in the test with hPMBC; in test [1]; in test [2]) was below 0.1 µM throughout.
Consider `Cc1ccc2cc1CNC(=O)C(CCc1ccccc1)NC(=O)[C@@H](NC(=O)OCc1ccccc1)CC(=O)N1CCCC(CCO2)C1` (stereo partly drawn) [Compound 503, benzyl ((12S)-9-phenethyl-5^4-methyl-8,11,14-trioxo-4-oxa-7,10-diaza-1(3,1)-piperidina-5(1,3)-benzenacyclotetradecaphane-12-yl)carbamate], for which the IC50 in the test with hPMBC is 0.1 to 0.5 µM; in test [1], below 0.1 µM; in test [2] it was 0.1 to 0.5 µM.
As for `CC(=O)N[C@H]1CC(=O)N2CCCC(CCOc3ccc(C)c(c3)CNC(=O)C(c3cc(C)n(C)n3)NC1=O)C2` (stereo partly drawn) [Compound 561, N-((12S)-9-(1,5-dimethyl-1H-pyrazol-3-yl)-5^4-methyl-8,11,14-trioxo-4-oxa-7,10-diaza-1(3,1)-piperidina-5(1,3)-benzenacyclotetradecaphane-12-yl)acetamide], the IC50 (in the test with hPMBC; in test [1]; in test [2]) was below 0.1 µM throughout.
Consider `Cc1ccc2cc1CNC(=O)[C@@H](CCc1ccccc1)NC(=O)[C@H](NC(=O)C(C)(C)CS)CC(=O)N1CCCC(CCO2)C1` (stereo partly drawn) [Compound 348, 3-mercapto-2,2-dimethyl-N-((9S,12S)-5^4-methyl-8,11,14-trioxo-9-phenethyl-4-oxa-7,10-diaza-1(3,1)-piperidina-5(1,3)-benzenacyclotetradecaphane-12-yl)propanamide], for which the IC50 (in the test with hPMBC; in test [1]; in test [2]) was below 0.1 µM each time.
Consider `Cc1ccc2cc1CNC(=O)[C@H](CCc1ccccc1)NC(=O)[C@@H](NC(=O)CC1=NN(c3ccccc3)C(=O)C1)CC(=O)N1CCCC(CCO2)C1` (stereo partly drawn) [Compound 334, N-((9S,12S)-5^4-methyl-8,11,14-trioxo-9-phenethyl-4-oxa-7,10-diaza-1(3,1)-piperidina-5(1,3)-benzenacyclotetradecaphane-12-yl)-2-(5-oxo-1-phenyl-4,5-dihydro-1H-pyrazol-3-yl)acetamide], for which the IC50 with hPMBC is 0.1 to 0.5 µM; in test [1], below 0.1 µM; in test [2] it was 0.1 to 0.5 µM.
As for `Cc1ccc2cc1CNC(=O)[C@H](CCc1ccccc1)NC(=O)[C@@H](NC(=O)OCc1ccccc1)CCC(=O)N1CCCC3(CC(C3)O2)C1` [Compound 301, benzyl ((7S,10S)-3^4-methyl-6,9,13-trioxo-7-phenethyl-2-oxa-5,8-diaza-14(3,1)-piperidina-3(1,3)-benzena-1(1,3)-cyclobutanatetradecaphane-10-yl)carbamate], the IC50 (in the test on hPMBC; in test [1]; in test [2]) was 1 to 5 µM each time.
